Format in all cases: in vivo
One assay relates to cotton seed. Kind of assay: Root system enhancement by neonicotinoid seed treatment, WinRhizo root analysis. The conditions noted are these: 28 days after planting, fungicide base plus insecticide seed treatment. As for the experimental part: In this experiment cotton seed was treated with a fungicide base and one of three commonly used neonicotinoid insecticides: imidacloprid (sold under the trademark GAUCHO 600@0.375 mg ai/seed), clothianidin (sold under the trademark PONCHO 600@0.375 mg ai/seed), and thiomethoxam (sold under the trademark CRUISER@0.34 mg ai/seed).
Fifty seeds from each of the four treatments were planted. […] Seedlings were harvested 28 days after planting and analyzed using the WinRhizo® root analysis system. There was no significant difference in germination.
In Table 1, a comparison of Length, Surface Area, Volume, and Tips/Forks/Crossings, was made through the analysis of 40-45 plants per treatment and by averaging 10 repetitions bracketing the median for each category.

The nature of assay [1]: Soybean seed treatment in soil infested with Soybean Cyst nematodes, height and WinRhizo root system analysis. The conditions noted are these: SCN-infested soil versus standard soil, same treatment. An excerpt: (§1) Soybeans (Variety-S2743-4RR) were planted with a base fungicide package and imidacloprid (sold under the trademark GAUCHO 600@62.5 gm AI/100 kg), a biological nematicide, or a combination of both. The seed were then planted in standard soil and soil infested with Soybean Cyst nematodes. Plants were harvested 28 days later (˜50 plants/treatment/soil type) and compared by height and by a WinRhizo® root system analysis (length, surface area, volume, tips, forks, and crossings (T/F/C))
(§2) The final column of Table 2 compares the total average percent difference in each of the treatments with soybean cyst nematode pressure. The plants with the insecticide alone fared the worst with stunted growth both above and below the soil and a total average reduction of 53%. […] The best overall treatment contained both the biological nematicide and the insecticide and there was only an 8% difference in overall plant development.

In another assay the test system is Soybean Cyst nematodes. The description is as above.
Source text: as §1, §2

Assay [2] has as its system Soybeans (Variety-S2743-4RR). Kind of assay: Soybean seed treatment in standard soil, height and WinRhizo root system analysis. The conditions noted are these: 28 days.
Source text: as §1

The mark [3] stands for this setting: soil infested with Soybean Cyst nematodes (SCN), 28 days.

This note sets out measurements from patent US9560852B2, “Combinations of biological control agents and insecticides or fungicides” (Bayer Intellectual Property GmbH, priority 2008, dated 2017).

Consider `CN/C(=N\[N+](=O)[O-])NCc1cnc(Cl)s1` [Clothianidin, clothianidin], for which, in the assay with cotton seed, the Length is listed as 88.11 a cm, the SurfArea amounted to 16.77 a cm^2, the “T/F/C (Tips/Forks/Crossings)” value came out at 93.93 a and the Volume came out at 0.29 a cm^3.
For the compound `O=[N+]([O-])NC1=NCCN1Cc1ccc(Cl)nc1` [Imidacloprid, imidacloprid], the “% difference (total average percent difference with soybean cyst nematode pressure)” value in assay [1] (listed as NI) was found to be 52.52%. Moreover, in assay [1] (listed as insecticide), the “% difference (total average percent difference with soybean cyst nematode pressure)” value was determined as 53%. The direct nematicidal activity entry in the assay on Soybean Cyst nematodes (insecticide alone) is on record as “no direct nematicidal activity”. Besides, in the assay with Soybean Cyst nematodes (setting [3]), the Height is 19.09 cm, the Length amounted to 167.41 cm, the SurfArea is recorded as 44.51 cm^2 and the T/F/C was determined as 283.90. The Volume with Soybean Cyst nematodes (setting [3]) came to 0.97 cm^3. Further, in assay [2], the Height is on record as 26.78 cm, the Length worked out at 281.93 cm, the SurfArea was determined as 66.40 cm^2 and the T/F/C was found to be 497.68. Also, in assay [2], the Volume came out at 1.25 cm^3. Moreover, in the assay with cotton seed, the Length is listed as 92.56 a cm, the SurfArea is 20.11 a cm^2, the “T/F/C (Tips/Forks/Crossings)” value came to 85.60 a and the Volume is listed as 0.35 a cm^3.
With `CN1COCN(Cc2cnc(Cl)s2)/C1=N\[N+](=O)[O-]` [Thiomethoxam, thiomethoxam], in the assay on cotton seed, the Length came to 95.01 a cm, the SurfArea was found to be 17.43 a cm^2, the “T/F/C (Tips/Forks/Crossings)” value is listed as 77.17 a and the Volume came out at 0.28 a cm^3.
